This test has as its system SK-N-SH cells. The test can be described thus: Test 3: protection of neuronal cells against hydrogen peroxide (LDH cell death test, Resazurin cell survival test). Particulars: for protection of cells against hydrogen peroxide, cumulative treatment, polyphenols taken individually (cell survival, Resazurin test): 1 μM, 1 nM and 1 pM for 3 consecutive days, then hydrogen peroxide 250 μM, analyzed 24 hours later; for protection of cells against hydrogen peroxide, acute treatment (cell death LDH release, survival Resazurin test): toxic hydrogen peroxide (250 μM), co-treated 24 hours at 1 μM, 1 nM and 1 pM. Format: cell-based, human.

Protocol: For this, SK-N-SH cells, a cell line of human neuroblasts, were kept in a MEM supplemented with 10% (v/v) FBS, 100 U/ml of penicillin, 100 μg/ml of streptomycin and 1% sodium pyruvate (1 mM) in a humidified incubator at 37° C. with 5% CO2. The cells were grown to 80% confluence then seeded in multi-well cell culture plates to create different experimental models. The neuroprotective effect of the different compounds was analyzed by two different and complementary tests: the cell death quantification test and the cell survival test.
The cell death test is a colorimetric test based on measuring the activity of the lactate dehydrogenase (LDH) released by the cytosol from damaged cells in the supernatant.
The cell survival test was performed by conducting a Resazurin Test. Resazurin is an oxidation-reduction indicator of the permeable cell that can be used to monitor the number of viable cells by using tetrazolium compounds. The viable cells with an active metabolism can reduce resazurin into a resorufin product that is pink and fluorescent.
SK-N-SH neuronal cells were subjected to a toxic concentration of hydrogen peroxide (250 μM) and co-treated with epicatechin, catechin or ferulic acid at 1 μM, 1 nM and 1 pM for 24 hours. On completing the treatment, the cells were washed twice and cell death (release of LDH) and survival (Resazurin test) were analyzed.
In order to study the synergistic effect of epicatchin, catechin and ferulic acid, the SK-N-SH neuronal cells were subjected for 24 hours to a toxic concentration of hydrogen peroxide and co-treated with a mix comprising epicatechin, catechin and ferulic acid, said mix being tested at the different concentrations of 1 μM, 1 nM or 1 pM. On completing the treatment, the cells were washed twice and the cell death (release of LDH) and survival (Resazurin test) were analyzed.
The neuroprotective effects of the three polyphenols, i.e. epicatechin, catechin and ferulic acid, with a cumulative treatment, were then studied. The SK-N-SH cells were grown to 80% confluence then seeded in multi-well cell culture plates. […] On the third day, the cells were subjected to a toxic concentration of hydrogen peroxide (250 μM) and the protection was analyzed 24 hours later. On completing the treatment, the cells were washed twice and cell survival (Resazurin test) was analyzed.
In order to study the synergistic effect of epicatechin, catechin and ferulic acid, the SK-N-SH cells were grown to 80% confluence then seeded in multi-well cell culture plates. […] On the third day, the cells were subjected to a toxic concentration of hydrogen peroxide (125 μM and 250 μM) and the protection was analyzed 24 hours later. On completing the treatment, the cells were washed twice and cell survival (Resazurin test) was analyzed. […]

As to catechin, the “protection of cells against hydrogen peroxide, cumulative treatment, polyphenols taken individually (cell survival, Resazurin test)” value is “do not protect the cells against hydrogen peroxide” and the “protection of cells against hydrogen peroxide, acute treatment (cell death LDH release, survival Resazurin test)” value is “do not protect the cells against hydrogen peroxide”.

`COc1cc(/C=C/C(=O)O)ccc1O` [ferulic acid]: the “protection of cells against hydrogen peroxide, cumulative treatment, polyphenols taken individually (cell survival, Resazurin test)” value is “do not protect the cells against hydrogen peroxide” and the “protection of cells against hydrogen peroxide, acute treatment (cell death LDH release, survival Resazurin test)” value is given as “do not protect the cells against hydrogen peroxide”.

The record behind these values is patent US12263200B2, “Specific nutritional or therapeutic agent including a mixture of grape and blueberry” (priority 2015, dated 2025).
